What is called IC50 is the concentration that gives 50% inhibition.

From patent US20250346613A1, “BORIC ACID PROTEASOME INHIBITOR AND USE THEREOF” (ARTIVILA BIOPHARMA, priority 2022, published 2025) come the findings set out here.

What all share (format): cell-based
The target of experiment [1] is T1, β5c subunit of the 20S proteasome (Homo sapiens, UniProt P20618+P28074).
T1 construct: The proteasome tested in the present disclosure was derived from Raji cells; endogenous in cells; host or cells: Raji cells
The experiment is described as follows: Proteasome inhibitory activity, β5c subunit (Raji cells treated with compound, lysed, Suc-LLVY-AMC substrate). The settings on record: proteasome from Raji cells incubated with compound 4 h. The text has this:
In the present disclosure, the fluorescent peptide substrate Ac-Ala-Asn-Trp-AMC (abbreviated as Ac-ANW-AMC) and the […] kit containing a fluorescent peptide substrate Suc-Leu-Leu-Val-Tyr-AMC (abbreviated as Suc-LLVY-AMC) (Promega, Item No. G8660) were used to detect the activities of the β5i subunit and β5c subunit of the 20S proteasome, respectively.
The proteasome tested in the present disclosure was derived from Raji cells, the fluorescent substrate Ac-ANW-AMC was purchased from Roche company, and other reagents were purchased from Sigma company. The experimental system was divided into two parts of cell lysis system and enzyme reaction system. […] The starting concentration of the compound (inhibitor) was 1 μM. It was diluted in a 3-fold serial dilution to a total of 8 concentrations, that is, the administration concentration can be 1 μM, 0.333 μM, 0.111 μM . . . , respectively, and the specific experimental process was described below.
Raji cells (1×10^6 cells) cryopreserved in liquid nitrogen were thawed rapidly in a water bath at 37° C. The cell pellet was transferred to a 15 mL centrifuge tube, added with 9 mL of fresh medium (Gibco RPMI1640 added with 10% fetal bovine serum and 1% double antibiotics), centrifuged at 120 g for 5 min, inoculated to 25 mL cell culture flasks, and passaged once every 2-3 days.
The compound was weighed and dissolved in DMSO to a concentration of 10 mM. The compound was then sequentially diluted to concentrations of 200 μM, 66.67 μM, 22.22 μM, 7.41 μM, 2.47 μM, 0.82 μM, 0.27 μM, and 0.091 μM with fresh medium. Raji cells in a good growth status were inoculated into a 48-well cell culture plate at 7×10^5 cells/mL.
Raji cells in a good growth status were taken and counted. They were then inoculated to a 48-well cell culture plate at 7×10^5 cells/mL. Each 5 μL of the various concentrations of diluted compounds above were taken and added to the culture plate inoculated with cells, and the lowest concentration of compound was 0 μM. The drug bortezomib (Velcade) and ONX-0914 were used as the positive control compounds. All cells were incubated at 37° C. for 4 h.
The compound-treated cells were sequentially transferred into 1.5 mL centrifuge tubes, centrifuged at 10000 rpm for 2 min, and the supernatants were removed. The cell pellet was resuspended in 1 mL of PBS, centrifuged at 10000 rpm for 2 min, and the supernatant was removed. Cells were resuspended by adding 100 μL of cell lysate (50 mM Tris of pH 7.5, 150 mM NaCl, 5 mM MgCl2, 5 mM ATP, 1 mM DTT, 0.01% NP-40, 1 mM Digitonin, and Cocktail), placed in an ice bath for 30 min, and centrifuged at 13000 rpm for 10 min.
2 mg of fluorescent peptide substrate AC-ANW-AMC was dissolved in 424.7 μL of DMSO to obtain an 8 mM stock solution, and stored at −20° C. The stock solution was diluted 100-fold to a final concentration of […] for use in the reaction system. The fluorescent peptide substrate Suc-LLVY-AMC was prepared according to the instructions of the Promega kit.
Each 20 μL of the prepared proteasome solution above was added to a 96-well white luciferase microplate and added with 25 μL of AC-ANW-AM substrate buffer solution (50 mM Tris of pH 7.5, 150 mM NaCl, 5 mM MgCl2, 5 mM ATP, 80 uM Ac-ANW-AMC and 1 mM DTT) and 25 μL of Suc-LLVY-AMC substrate buffer solution for 10 min of reaction at 37° C. in the dark. Fluorescence values were read at 345 nm/445 nm by using a fluorence microplate reader.
The data were exported and the inhibition rate in percentage was calculated according to the following formula: Inhibition rate=(maximum signal value-compound signal value)/(maximum signal value−blank signal value)×100%.
Where the maximum signal was obtained from cell lysates treated with DMSO only, and the blank signal was obtained from wells containing only lysates.

The next experiment deals with MM.1S cell strain. The experiment is described as follows: Inhibitory activity of cell strain (CellTiter-Glo). The conditions noted are these: Homo sapiens, MM1.S, 72 h incubation. An outline of the steps:
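Cells seeded at 1×10^5 per well in RPMI1640 complete medium for 24 h, then treated 72 h at 37 °C, 5% CO2 with 3-fold dilutions, final 5×10^−7 M down to 2.29×10^−10 M. CellTiter-Glo luminescence; inhibition calculated against DMSO-only cells and medium-only blanks.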
Background: Cellular ATP, detected with luciferase, serves as a proxy for viable cell number.

Experiment [2] has as its target T2, β5i subunit of the 20S proteasome (Homo sapiens, UniProt P20618+P28062).
T2 construct: The proteasome tested in the present disclosure was derived from Raji cells; endogenous in cells; host or cells: Raji cells
Kind of experiment: Proteasome inhibitory activity, β5i subunit (Raji cells treated with compound, lysed, Ac-ANW-AMC substrate). The settings on record: proteasome from Raji cells incubated with compound 4 h. An outline of the steps: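 Raji cells were treated for 4 h at 37 °C with compound (from 1 μM, 3-fold, 8 concentrations), then lysed. Lysate activity was read 10 min at 37 °C with Ac-ANW-AMC (β5i) or Suc-LLVY-AMC (β5c) at 345/445 nm. Percent inhibition was relative to DMSO-treated lysate.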

As to `COc1cccc(CNC(=O)C(C(=O)N[C@@H](Cc2coc3ccccc23)B(O)O)C(C)C)c1` (stereo partly drawn) [Example 75, ((1R)-2-(benzofuran-3-yl)-1-(2-((3-methoxybenzyl)carbamoyl)-3-methylbutanamido)ethyl)boric acid], the IC50 (in experiment [1]; with MM.1S cell strain; in experiment [2]) was at most 50 nM in each case.
As to `CC(C(=O)NCc1cccc(C(F)(F)F)c1)C(=O)N[C@@H](Cc1coc2ccccc12)B(O)O` (stereo partly drawn) [Example 77, ((1R)-2-(benzofuran-3-yl)-1-(2-methyl-3-oxo-3-((3-(trifluoromethyl)benzyl)amino)propionamido)ethyl)boric acid], the IC50 (in experiment [1]; in the experiment on MM.1S cell strain; in experiment [2]) was at most 50 nM in each case.
Consider `COc1cccc(CNC(=O)C(CC2CC2)C(=O)N[C@@H](Cc2ccc(C)cc2)B(O)O)c1` (stereo partly drawn) [Example 80, ((1R)-1-(2-(cyclopropylmethyl)-3-((3-methoxybenzyl)amino)-3-oxopropionamido)-2-(p-tolyl)ethyl)boric acid], for which the IC50 (in experiment [1]; in the experiment with MM.1S cell strain; in experiment [2]) was at most 50 nM each time.
Consider `COc1cccc(CNC(=O)C(CC2CC2)C(=O)N[C@@H](Cc2coc3ccccc23)B(O)O)c1` (stereo partly drawn) [Example 81, ((1R)-2-(benzofuran-3-yl)-1-(2-(cyclopropylmethyl)-3-((3-methoxybenzyl)amino)-3-oxopropionamido)ethyl)boric acid], for which the IC50 (in experiment [1]; with MM.1S cell strain; in experiment [2]) was at most 50 nM each time.
For `COc1cccc(CNC(=O)C(CC2CCCCC2)C(=O)N[C@@H](Cc2ccc(C)cc2)B(O)O)c1` (stereo partly drawn) [Example 83, ((1R)-1-(2-(cyclohexylmethyl)-3-((3-methoxybenzyl)amino)-3-oxopropionamido)-2-(p-tolyl)ethyl)boric acid], the IC50 in experiment [1] was 50 to 200 nM; in the experiment on MM.1S cell strain, above 500 nM; in experiment [2] it was at most 50 nM.
Taken in the same sequence, the figures for `COc1cccc(CNC(=O)C(CC2CCCCC2)C(=O)N[C@@H](Cc2coc3ccccc23)B(O)O)c1` (stereo partly drawn) [Example 84, ((1R)-2-(benzofuran-3-yl)-1-(2-(cyclohexylmethyl)-3-((3-methoxybenzyl)amino)-3-oxopropionamido)ethyl)boroic acid] were at most 50 nM, at most 50 nM and at most 50 nM.
On to `COc1cccc(CNC(=O)C(C(=O)N[C@@H](Cc2ccc(C)cc2)B(O)O)C(C)C)c1` (stereo partly drawn) [Example 87, ((1R)-1-(2-((3-methoxybenzyl)carbamoyl)-3-methylbutanamido)-2-(p-tolyl)ethyl)boric acid], for which the IC50 (in experiment [1]; in the experiment with MM.1S cell strain; in experiment [2]) was at most 50 nM each time.
For `Cc1ccc(C[C@H](NC(=O)C(C(=O)NCc2ccc(Cl)cc2Cl)C(C)C)B(O)O)cc1` (stereo partly drawn) [Example 88, ((1R)-1-(2-((2,4-dichlorobenzyl)carbamoyl)-3-methylbutanamido)-2-(p-tolyl)ethyl)boric acid], the IC50 in experiment [1] was 50 to 200 nM; in the experiment with MM.1S cell strain it was 50 to 200 nM; in experiment [2], at most 50 nM.
Take `CC(C)C(C(=O)NCc1ccc(Cl)cc1Cl)C(=O)N[C@@H](Cc1coc2ccccc12)B(O)O` (stereo partly drawn) [Example 89, ((1R)-2-(benzofuran-3-yl)-1-(2-((2,4-dichlorobenzyl)carbamoyl)-3-methylbutanamido)ethyl)boric acid]: the IC50 (in experiment [1]; with MM.1S cell strain; in experiment [2]) was at most 50 nM throughout.
Consider `Cc1ccc(C[C@H](NC(=O)C(Cc2ccccc2)C(=O)NCc2ccc3[nH]ccc3c2)B(O)O)cc1` (stereo partly drawn) [Example 90, ((1R)-1-(3-(((1H-indol-5-yl)methyl)amino)-2-benzyl-3-oxopropionamido)-2-(p-tolyl)ethyl)boric acid], for which the IC50 (in experiment [1]; in the experiment on MM.1S cell strain; in experiment [2]) was at most 50 nM each time.
